Measured values: patent US5599548A, “Skin care compositions containing fatty acid amides and retinol or retinyl ester” (priority 1995, dated 1997)
“Also recorded” adds a separate entry of the source. Like-named read-outs stand apart in the source and are kept apart here.

How the values were obtained:
[1] = test system: TGase I (keratinocyte transglutaminase level); assay: Transglutaminase (TGase I) ELISA assay (keratinocyte differentiation); assay type: cell-based, human
Procedure: (§1) Human keratinocytes, isolated from neonatal foreskin by trypsin treatment were grown in Dulbecco Modification Eagle (DME) Hams F12 (1:1) medium/10% fetal calf serum in the presence of irradiated 3T3 mouse fibroblasts for establishing dividing keratinocyte colonies. Cells were grown under the above condition until their second passage and kept frozen for future use. […] On day 7, when the cells were 80-90% confluent, they were trypsinized and plated in the serum-free medium for the various experiments.
During the process of terminal differentiation in the epidermis, a 15 nm thick layer of protein, known as the cornified envelope (CE) is formed on the inner surface of the cell periphery. The CE is composed of numerous distinct proteins which have been cross-linked together by the formation of N^ε -(γ-glutamyl) lysine isodipeptide bonds catalyzed by the action of at least two different transglutaminases (TGases) expressed in the epidermis. TGase I is expressed in abundance in the differentiated layers of the epidermis, especially the granular layer, but is absent in the undifferentiated basal epidermis. Thus TGase I is a useful marker of epidermal keratinocyte differentiation with high TGase I levels indicating a more differentiated state. An ELISA based TGase I assay, using a TGase I antibody, was used to assess the state of differentiation of the cultured keratinocytes in the examples that follow.
Keratinocytes (cultured as described above) were plated in 96 well plates at a density of 3,000 cells per well in 200 μl media. After incubation for four days the media was changed to media containing test compounds (six replicates per test). The cells were cultured for a further 72 hours after which time the media was aspirated and the plates stored at -70° C. Plates were removed from the freezer, and the cells washed with PBS. 100 μl sterile water was added and the cells were freeze fractured by freezing at -70° C. then thawing. The cells were incubated for one hour at room temperature (R/T) with PBS/3% BSA (wash buffer, bovine serum albumin), then rinsed with a fresh aliquot of wash buffer. Cells were incubated with 50 μl of primary antibodies monoclonal anti-human transglutaminase (IgG) obtained from Amersham (mouse) diluted 1:300 in wash buffer for one hour, 37° C. then rinsed two times with wash buffer. Cells were then incubated with 50 μl of secondary antibody (Feb fragment, peroxidase conjugated anti-mouse IgG obtaining from Amersham) diluted 1:200 in wash buffer for one hour at 37° C., then rinsed two times with wash buffer. Cells were incubated with substrate solution (4 mg o-phenylene diamine and 3.3 μl 30% H2 O2 in 10 ml 0.1M citrate buffer pH 5.0) for five minutes, R/T, in darkness (under aluminum foil). The reaction was stopped by the addition of 50 μl 4N H2 SO4. The absorbance of samples was read at 492 nm in the plate reader. Out of the six replicates, four were treated with both antibodies, two were treated only with the secondary antibody (i.e., to determine background binding of enzyme conjugated Ab). TGase levels were determined by subtracting background from the readings from each treatment and determining mean ±s.d. for the replicates exposed to both Ab.

Human keratinocytes = assay: 3H-Thymidine incorporation (keratinocyte proliferation); assay type: cell-based; settings: for increase of thymidine incorporation/proliferation over ethanol control: retinol 2.5×10^-8 M; for activity at 0.025 µM: 2.5 × 10^-8 M
Procedure: as §1
The incorporation of […] by cultured keratinocytes was used as an assay of keratinocyte proliferation. Thymidine is one of four deoxynucleosides which are the monomeric units of DNA, the universal library of genetic information in the animal kingdom. Prior to cell division of a somatic cell such as a keratinocyte, the complete genome of the cell undergoing cell division is replicated. This involves large scale DNA synthesis by the cell and enables both daughter cells to receive identical copies of the genetic material. When ^3 H-thymidine is included in the culture media of keratinocytes which are synthesizing DNA in preparation for cell division then the labelled nucleoside is incorporated into the newly synthesized DNA. The extent of incorporation of ^3 H-thymidine into a population of cells is proportional to the rate of DNA synthesis by this population of cells and therefore an indication of their cellular proliferation.
Keratinocytes (that were cultured as described above) were plated in 24 well plates at a density of 40,000 cells per well in 1 ml media. After incubation for four days or until the cells were 60-70% confluent, the media was changed. Test compounds were added (in triplicate) to the wells 24 hours after the media change, and four hours later 1μCi^3 H-Thymidine in 50 μl media was added per well. Cells were incubated for a further 24 hours. Media was removed from the cells, 10% ice cold trichloroacetic acid (TCA) added and plates were incubated on ice for 30 minutes. Cells were washed five times with 5% TCA and allowed to dissolve in 500 μl 0.1M NaOH for at least one hour (usually overnight). The preparations were neutralized with 0.1M HCl; 50 μl of the cell preparation was used to determine total protein content. Disintegrations per minute (DPM) from ^3 H labelling of DNA was determined by liquid scintillation counting of […] of the cell preparation. Thymidine incorporation results were expressed as DPM/μg protein.

[2] = Table 3B, RA, RP 2.5 × 10^-7 M, linoleoyl-DEA 10^-6 M, alone or combined, n = 3
[3] = Table 4A, RA, retinol 2.5 × 10^-7 M, cocoyl-DEA 10^-7 M, alone or combined, n = 3
[4] = Table 4B, RA, retinol 2.5 × 10^-8 M, cocoyl-MEA 10^-8 M, alone or combined, n = 3
[5] = Table 5B, RA, retinol 2.5 × 10^-8 M, methyl linoleate 10^-8 M, alone or combined, n = 3
[6] = concentrations as in the respective Example

CC1=C(/C=C/C(C)=C/C=C/C(C)=C/C(=O)O)C(C)(C)CCC1 [RA, retinoic acid]
activity at 0.25 µM ([1]; Homo sapiens, Keratinocyte, 72 h, Table 1B, 2.5 × 10^-7 M, 72 h, n = 3, read-out: Transglutaminase level, % control): 20%
activity at 0.025 µM ([1]; Homo sapiens, Keratinocyte, 72 h, Table 1B, 2.5 × 10^-8 M, 72 h, n = 3, read-out: Transglutaminase level, % control): 62%
activity at 0.0025 µM ([1]; Homo sapiens, Keratinocyte, 72 h, Table 1B, 2.5 × 10^-9 M, 72 h, n = 3, read-out: Transglutaminase level, % control): 84%
activity at 1 µM ([1]; Homo sapiens, Keratinocyte, Table 5A, RA, retinol 2.5 × 10^-7 M, linoleic acid 10^-6 M, alone or combined, n = 3, read-out: TGase (TG1) level, % control): 0%
activity at 0.25 µM ([1]; Homo sapiens, Keratinocyte, Table 8A, 2.5 × 10^-7 M, n = 3, read-out: TGase, % control): 34%
activity at 0.025 µM ([1]; Homo sapiens, Keratinocyte, Table 8A, 2.5 × 10^-8 M, n = 3, read-out: TGase, % control): 64%
activity at 0.0025 µM ([1]; Homo sapiens, Keratinocyte, Table 8A, 2.5 × 10^-9 M, n = 3, read-out: TGase, % control): 87%
activity at 0.25 µM ([1]; Homo sapiens, Keratinocyte, Table 8B, 2.5 × 10^-7 M, n = 3, read-out: TGase, % control): 12%
mean Transglutaminase ELISA level ± s.d ([1]; Table 1B, 2.5 × 10^-7 M, 72 h, n = 3): 0.088 ± 0.015
mean Transglutaminase ELISA level ± s.d ([1]; Table 1B, 2.5 × 10^-8 M, 72 h, n = 3): 0.268 ± 0.068
mean Transglutaminase ELISA level ± s.d ([1]; Table 1B, 2.5 × 10^-9 M, 72 h, n = 3): 0.360 ± 0.067
TGase (TG1) level, % control ([1]; Table 2B, RA, ROH 2.5 × 10^-7 M, linoleoyl-DEA 10^-6 M, alone or combined, 72 h, n = 9): 28%
mean TGase ± s.d ([1]; Table 2B, RA, ROH 2.5 × 10^-7 M, linoleoyl-DEA 10^-6 M, alone or combined, 72 h, normalized to ethanol control, n = 9): 0.283 ± 0.470
TGase (TG1) level, % control [1, 2]: 33%
mean TGase ± s.d [1, 2]: 0.073 ± 0.022
TGase (TG1) level, % control [1, 3]: 33%
mean TGase ± s.d [1, 3]: 0.058 ± 0.098
TGase (TG1) level, % control [1, 4]: 29%
mean TGase ± s.d [1, 4]: 0.036 ± 0.009
mean TGase ± s.d ([1]; Table 5A, RA, retinol 2.5 × 10^-7 M, linoleic acid 10^-6 M, alone or combined, n = 3): -0.004 ± 0.103
TGase (TG1) level, % control [1, 5]: 32%
mean TGase ± s.d [1, 5]: 0.092 ± 0.030
mean TGase level ± s.d ([1]; Table 6A (Effect on Keratinocyte TGase), RA, ROH 2.5 × 10^-7 M, formamide 10^-7 M, alone or combined, 72 h, n = 3): 0.137 ± 0.024
TGase (TG1) level, % control ([1]; Table 6A, RA, ROH 2.5 × 10^-7 M, formamide 10^-7 M, alone or combined, 72 h, n = 3): 28%
mean TGase level ± s.d ([1]; Table 6B (Effect on Keratinocyte TGase), RA, ROH 2.5 × 10^-7 M, acetamide 10^-7 M, alone or combined, 72 h, n = 3): 0.226 ± 0.069
TGase (TG1) level, % control ([1]; Table 6B, RA, ROH 2.5 × 10^-7 M, acetamide 10^-7 M, alone or combined, 72 h, n = 3): 46%
mean TGase level ± s.d ([1]; Table 6C (Effect on Keratinocyte TGase), RA, ROH 2.5 × 10^-7 M, pentanoyl-DEA 10^-7 M, alone or combined, 72 h, n = 3): 0.088 ± 0.015
mean TGase ± s.d ([1]; Table 8A, 2.5 × 10^-7 M, n = 3): 0.073 ± 0.022
mean TGase ± s.d ([1]; Table 8A, 2.5 × 10^-8 M, n = 3): 0.138 ± 0.034
mean TGase ± s.d ([1]; Table 8A, 2.5 × 10^-9 M, n = 3): 0.190 ± 0.091
mean TGase ± s.d ([1]; Table 8B, 2.5 × 10^-7 M, n = 3): 0.015 ± 0.025
effect on keratinocyte TG1 levels / differentiation, in words [1, 6]: decreased keratinocyte differentiation; also recorded: repressed keratinocyte TG 1 levels completely; also recorded: significantly decreased keratinocyte TGase levels; also recorded: decreased transglutaminase I levels
increase of thymidine incorporation/proliferation over ethanol control (Human keratinocytes; Example 2A, RA, linoleoyl-DEA 10^-9 M): 26%
increase of thymidine incorporation/proliferation over ethanol control (Human keratinocytes; Example 4C, RA, palmitoyl-MEA 10^-6 M): 16%
increase of thymidine incorporation/proliferation over ethanol control (Human keratinocytes; Example 4D, RA, linoleoyl-MEA 10^-9 M): 47%
activity at 0.25 µM (Human keratinocytes; Homo sapiens, Keratinocyte, 24 h, Table 1A, first RA/ROH pair, 2.5 × 10^-7 M, 24 h, n = 3, read-out: thymidine incorporation, % control): 118%
activity at 0.25 µM (Human keratinocytes; Homo sapiens, Keratinocyte, 24 h, Table 1A, second RA/ROH pair, 2.5 × 10^-7 M, 24 h, n = 3, read-out: thymidine incorporation, % control): 128%
activity at 0.25 µM (Human keratinocytes; Homo sapiens, Keratinocyte, 24 h, Table 1A, third RA/ROH pair, 2.5 × 10^-7 M, 24 h, n = 3, read-out: thymidine incorporation, % control): 122%
activity at 0.0025 µM (Human keratinocytes; Homo sapiens, Keratinocyte, 24 h, Table 3A, RA 2.5 × 10^-9 M, RP 2.5 × 10^-7 M, linoleoyl-DEA 10^-8 M, alone or combined, n = 3, read-out: thymidine incorporation, % control): 117%
activity at 0.25 µM (Human keratinocytes; Homo sapiens, Keratinocyte, 24 h, Table 7A, 2.5 × 10^-7 M, 24 h, n = 9, read-out: mean Thymidine incorp/μg protein ± s.d): 113 ± 10.9%
activity at 0.25 µM (Human keratinocytes; Homo sapiens, Keratinocyte, 24 h, Table 7A, 2.5 × 10^-7 M, 24 h, n = 9, read-out: thymidine incorporation, % control): 113%
activity at 0.025 µM (Human keratinocytes; Homo sapiens, Keratinocyte, 24 h, Table 7A, 24 h, n = 9, read-out: mean Thymidine incorp/μg protein ± s.d): 125 ± 13.9%
activity at 0.025 µM (Human keratinocytes; Homo sapiens, Keratinocyte, 24 h, Table 7A, 24 h, n = 9, read-out: thymidine incorporation, % control): 126%
activity at 0.0025 µM (Human keratinocytes; Homo sapiens, Keratinocyte, 24 h, Table 7A, 2.5 × 10^-9 M, 24 h, n = 9, read-out: mean Thymidine incorp/μg protein ± s.d): 121 ± 12.8%
activity at 0.0025 µM (Human keratinocytes; Homo sapiens, Keratinocyte, 24 h, Table 7A, 2.5 × 10^-9 M, 24 h, n = 9, read-out: thymidine incorporation, % control): 121%
activation at 0.0025 µM (Human keratinocytes; Homo sapiens, Keratinocyte, read-out: increase of thymidine incorporation/proliferation over ethanol control): 17%
mean Thymidine incorp./μg protein ± s.d (Human keratinocytes; Table 1A, first RA/ROH pair, 2.5 × 10^-7 M, 24 h, n = 3): 2475 ± 116 DPM/μg protein
mean Thymidine incorp./μg protein ± s.d (Human keratinocytes; Table 1A, second RA/ROH pair, 2.5 × 10^-7 M, 24 h, n = 3): 2686 ± 72 DPM/μg protein
mean Thymidine incorp./μg protein ± s.d (Human keratinocytes; Table 1A, third RA/ROH pair, 2.5 × 10^-7 M, 24 h, n = 3): 2556 ± 80 DPM/μg protein
mean Thymidine incorp./μg protein ± s.d (Human keratinocytes; Table 2A, RA, ROH 2.5 × 10^-8 M, linoleoyl-DEA 10^-9 M, alone or combined, 24 h, normalized to ethanol control, n = 9): 1.255 ± 0.139
mean Thymidine incorp./μg protein ± s.d (Human keratinocytes; Table 3A, RA 2.5 × 10^-9 M, RP 2.5 × 10^-7 M, linoleoyl-DEA 10^-8 M, alone or combined, n = 3): 1990 ± 61 DPM/μg protein
mean Thymidine incorp./μg protein ± s.d (Human keratinocytes; Table 4C, RA, retinol 2.5 × 10^-8 M, palmitoyl-MEA 10^-6 M, alone or combined, control = 1.000, n = 3): 1.164 ± 0.113
thymidine incorporation, % control (Human keratinocytes; Table 4C, RA, retinol 2.5 × 10^-8 M, palmitoyl-MEA 10^-6 M, alone or combined, n = 3, 1440 min): 116%
thymidine incorporation, % control (Human keratinocytes; Table 4D, RA, ROH 2.5 × 10^-8 M, linoleoyl-MEA 10^-9 M, alone or combined, 24 h, n = 3): 147%
mean Thymidine incorp./μg protein ± s.d (Human keratinocytes; Table 4D, RA, ROH 2.5 × 10^-8 M, linoleoyl-MEA 10^-9 M, alone or combined, 24 h, normalized to ethanol control, n = 3): 1.47 ± 0.36
effect on keratinocyte proliferation, in words (Human keratinocytes; [6]): significantly increased keratinocyte proliferation; also recorded: increased thymidine incorporation
